Experimental data reported in ChEMBL document CHEMBL3774325, “Design, synthesis, and structure-activity relationship study of glycyrrhetinic acid derivatives as potent and selective inhibitors against human carboxylesterase 2” (Eur J Med Chem, 2016).

What was measured:
Liver carboxylesterase 1 = molecular target: T1, Liver carboxylesterase 1 (Homo sapiens, UniProt P23141); experiment: Inhibition of CE1 in human liver microsomes using 2-(2-Benzoyl-3-methoxyphenyl) benzothiazole as substrate preincubated for 10 mins followed by substrate addition measured after 30 mins by LC-UV analysis
T1 sequence (P23141 whole entry): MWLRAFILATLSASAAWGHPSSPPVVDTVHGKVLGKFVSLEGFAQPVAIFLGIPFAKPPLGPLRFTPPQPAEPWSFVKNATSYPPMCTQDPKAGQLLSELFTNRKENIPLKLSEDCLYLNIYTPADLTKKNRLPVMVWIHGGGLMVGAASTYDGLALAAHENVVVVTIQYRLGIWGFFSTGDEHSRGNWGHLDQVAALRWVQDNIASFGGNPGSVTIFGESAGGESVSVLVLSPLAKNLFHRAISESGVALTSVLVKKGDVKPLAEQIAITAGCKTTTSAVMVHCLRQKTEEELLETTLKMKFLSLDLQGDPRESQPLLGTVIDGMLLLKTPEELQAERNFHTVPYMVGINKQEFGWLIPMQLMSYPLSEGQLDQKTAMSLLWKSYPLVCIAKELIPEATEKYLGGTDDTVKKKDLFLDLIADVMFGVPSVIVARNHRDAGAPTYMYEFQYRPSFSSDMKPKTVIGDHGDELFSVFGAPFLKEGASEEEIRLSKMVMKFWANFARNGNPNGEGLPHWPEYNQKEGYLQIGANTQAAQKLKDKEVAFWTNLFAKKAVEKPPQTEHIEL

Cocaine esterase = molecular target: T2, Cocaine esterase (Homo sapiens, UniProt O00748); experiment: Inhibition of CE2 in human liver microsomes using fluorescein diacetate as substrate preincubated for 10 mins followed by substrate addition measured after 30 mins by LC-UV analysis
T2 sequence (O00748 whole entry): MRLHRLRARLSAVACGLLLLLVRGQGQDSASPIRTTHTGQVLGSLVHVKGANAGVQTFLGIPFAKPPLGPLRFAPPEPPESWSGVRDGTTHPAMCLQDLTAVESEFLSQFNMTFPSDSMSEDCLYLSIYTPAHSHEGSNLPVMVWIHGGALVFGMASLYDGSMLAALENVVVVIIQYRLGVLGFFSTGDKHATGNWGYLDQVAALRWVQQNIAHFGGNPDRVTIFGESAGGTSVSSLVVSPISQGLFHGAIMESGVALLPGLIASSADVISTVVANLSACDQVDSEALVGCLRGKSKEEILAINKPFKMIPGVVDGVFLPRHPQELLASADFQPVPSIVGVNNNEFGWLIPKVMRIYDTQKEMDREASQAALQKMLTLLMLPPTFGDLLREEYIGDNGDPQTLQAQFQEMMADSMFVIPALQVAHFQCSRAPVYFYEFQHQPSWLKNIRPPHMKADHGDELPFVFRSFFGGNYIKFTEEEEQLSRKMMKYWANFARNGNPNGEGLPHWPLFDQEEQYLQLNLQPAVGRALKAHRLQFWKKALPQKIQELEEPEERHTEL

Homo sapiens = species: Homo sapiens; experiment: Selectivity ratio of IC50 for CE1 in human liver microsomes to IC50 for CE2 in human liver microsomes

SMILES | IC50 (Liver carboxylesterase 1) [µM] | IC50 (Cocaine esterase) [µM] | Ratio IC50 (Homo sapiens)
CC(=O)O[C@H]1CC[C@]2(C)[C@H]3C(=O)C=C4[C@@H]5C[C@@](C)(C(N)=O)CC[C@]5(C)CC[C@@]4(C)[C@]3(C)CC[C@H]2C1(C)C | 11 | 7.36 | 1.5
CCOC(=O)[C@@]1(C)CC[C@]2(C)CC[C@]3(C)C(=CC(=O)[C@@H]4[C@@]5(C)CC[C@H](OC(=O)CCC(=O)O)C(C)(C)[C@@H]5CC[C@]43C)[C@@H]2C1 | > 100 | 0.66 | 152
CC(=O)O[C@H]1CC[C@]2(C)[C@H]3C(=O)C=C4[C@@H]5C[C@@](C)(C(=O)O)CC[C@]5(C)CC[C@@]4(C)[C@]3(C)CC[C@H]2C1(C)C [ACETOXOLONE] | 49.9 |  | 
CC(=O)O[C@H]1CC[C@]2(C)[C@H]3C(=O)C=C4[C@@H]5C[C@@](C)(C#N)CC[C@]5(C)CC[C@@]4(C)[C@]3(C)CC[C@H]2C1(C)C | > 100 | > 100 | 
O=[N+]([O-])c1ccc(OP(=O)(O)Oc2ccc([N+](=O)[O-])cc2)cc1 | 0.14 |  | 
CC1(C)[C@@H](O)CC[C@]2(C)[C@H]3C(=O)C=C4[C@@H]5C[C@@](C)(C(=O)O)CC[C@]5(C)CC[C@@]4(C)[C@]3(C)CC[C@@H]12 [ENOXOLONE] | 21 |  | 
CN(C)CCOC(=O)[C@@]1(C)CC[C@]2(C)CC[C@]3(C)C(=CC(=O)[C@@H]4[C@@]5(C)CC[C@H](O)C(C)(C)[C@@H]5CC[C@]43C)[C@@H]2C1 | 9.13 | 3.95 | 2.3
COc1cc2c(cc1CC=C(C)C)C(=O)C[C@@H](c1ccc(O)cc1)O2 [BAVACHININ A] | 3.47 | 4.31 | 0.8
CCOC(=O)[C@@]1(C)CC[C@]2(C)CC[C@]3(C)C(=CC(=O)[C@@H]4[C@@]5(C)CC[C@H](O)C(C)(C)[C@@H]5CC[C@]43C)[C@@H]2C1 | 26.3 | 5.7 | 4.6
CCOC(=O)[C@@]1(C)CC[C@]2(C)CC[C@]3(C)C(=CC[C@@H]4[C@@]5(C)CC[C@H](OC(=O)CCC(=O)O)C(C)(C)[C@@H]5CC[C@]43C)[C@@H]2C1 | 20.4 |  | 
CC1(C)[C@@H](O)CC[C@]2(C)[C@H]3C(=O)C=C4[C@@H]5C[C@@](C)(C(N)=O)CC[C@]5(C)CC[C@@]4(C)[C@]3(C)CC[C@@H]12 | 6.99 | 14.2 | 0.5
CCOC(=O)[C@@]1(C)CC[C@]2(C)CC[C@]3(C)C(=CC[C@@H]4[C@@]5(C)CC[C@H](O)C(C)(C)[C@@H]5CC[C@]43C)[C@@H]2C1 | 25.1 | 3.99 | 6.3
CC1(C)C(=O)CC[C@]2(C)[C@H]3CC=C4[C@@H]5C[C@@](C)(C(=O)O)CC[C@]5(C)CC[C@@]4(C)[C@]3(C)CC[C@@H]12 | 23.6 |  | 
CC(=O)O[C@H]1CC[C@]2(C)[C@H]3C(=O)C=C4[C@@H]5C[C@@](C)(C(=O)OCCN(C)C)CC[C@]5(C)CC[C@@]4(C)[C@]3(C)CC[C@H]2C1(C)C | 12.3 | 3.42 | 3.6
CC1(C)[C@@H](O)CC[C@]2(C)[C@H]3CC=C4[C@@H]5C[C@@](C)(C(=O)O)CC[C@]5(C)CC[C@@]4(C)[C@]3(C)CC[C@@H]12 | 10.5 |  | 
CC1(C)C(=O)CC[C@]2(C)[C@H]3C(=O)C=C4[C@@H]5C[C@@](C)(C(=O)O)CC[C@]5(C)CC[C@@]4(C)[C@]3(C)CC[C@@H]12 | > 100 | > 100 | 
COC(=O)[C@@]1(C)CC[C@]2(C)CC[C@]3(C)C(=CC(=O)[C@@H]4[C@@]5(C)CC[C@H](O)C(C)(C)[C@@H]5CC[C@]43C)[C@@H]2C1 | 22.4 | 5.61 | 4
